Source: patent publication US20200289520A1, “COMPOSITION AND METHOD FOR TREATING PERIPHERAL T-CELL LYMPHOMA AND CUTANEOUS T-CELL LYMPHOMA” (Rhizen Pharmaceuticals SA, priority 2017, published 2020)
“Also recorded” adds a separate entry of the source.

Columns and labels:
phospho-AKT (Ser473) = test: Reduction of pAKT in T-cell lymphoma cell lines (Western blotting); type: cell-based; conditions: Western blot normalized to actin, FIG. 2
Protocol: AKT, a serine threonine kinase mediates the downstream effects of PI3K activity and modulates several cell processes including survival and growth. Reduction of pAKT by Compound (A) in representative cell lines was determined by Western blotting using a phospho-AKT (Ser^473) antibody. Band intensity was measured and quantified using ImageJ software and normalized to actin.

[1] = test system: T-cell lymphoma cell lines (Jurkat, MOLT-4, CCRF-CEM, HuT-78, HuT-102, Sez4 and HH); test: Anti-proliferative effect in T-cell lymphoma cell lines (MTT assay); type: cell-based; conditions: 48-72 h incubation, FIG. 1
Protocol: Compound (A) was tested across a panel of T-cell lymphoma cell lines (Jurkat, MOLT-4, CCRF-CEM, HuT-78, HuT-102, Sez4 and HH). Cells were plated in 96-well plates and incubated with desired concentrations of Compound A for 48-72 h. At the end of the incubation period, MTT ((3-(4,5-dimethylthiazol-2-yl)-2,5-diphenyltetrazolium bromide)) was added. The plate was placed on a shaker for 5 min to mix the formazan and the optical density at 560 nm was measured on a spectrophotometer. Data were plotted using Graphpad prism for calculation of the IC50 concentrations.

[2] = test system: Malignant T cells from Cutaneous T-cell Lymphoma (CTCL) patient donors; test: Apoptosis by Annexin V/PI staining in purified malignant T-cells from CTCL donors; type: cell-based, human; conditions: CTCL donors n=4, 48 h, FIG. 5
Protocol: (§1) The effect of Compound (A) on pAKT in patient-derived primary cells was also studied. Malignant T cells from Cutaneous T-cell Lymphoma (CTCL) patient donors (n=6) were purified using fluorescence-activated cell sorting (FACS) and cultured overnight in RPMI/1% BSA. Cells were incubated with desired concentrations of Compound (A) for 1.5 h followed by activation with a cytokine mixture (20 ng/ml IL2+5 ng/ml IL7+10 ng/ml IL15+10% FBS) for 30 min. pAKT was estimated using Phosphoflow and normalized to total AKT. Data were analyzed using Prism 5.0 software analysis. For apoptosis assays, FACS purified cells from CTCL donors (n=4) were cultured in RPMI/10% FBS+20 ng/ml IL2+5 ng/ml IL7+10 ng/ml IL15 with and without Compound (A), LY294002, or camptothecin for 48 h. Apoptosis was assayed by Annexin V/PI staining.

[3] = test system: relapsed or refractory T-cell lymphoma; test: Phase I/Ib study in patients with relapsed or refractory T-cell lymphoma (PTCL and CTCL); type: in vivo, human; conditions: for ORR (objective response rate) / ORR (objective response rate), patients: oral BID
Protocol: This is a Phase I/Ib, 3+3 design study in patients with relapsed or refractory T-cell lymphoma
Compound (A) (tenalisib) was given orally twice a day in 28-day cycles and dose-limiting toxicities (DLTs) were assessed during the first cycle.
Intra-patient dose escalation was allowed following safety of higher doses. • Primary Objectives: The Safety, Pharmacokinetics (PK), Maximum Tolerated Dose (MTD) • Secondary Objectives: Pharmacodynamics, Overall response rate (ORR), Duration of response (DOR)
Histologically confirmed T-cell Non-Hodgkin's lymphoma.
Relapsed after, or refractory to ≥1 prior treatments, and not eligible for transplantation and or approved therapy; ECOG performance status ≤2; patient with measurable or evaluable disease; Adequate organ system function: ANC ≥750/μL; platelets ≥50 K/μL.
Prior therapy that inhibits PI3K/BTK/mTOR were part of exclusion criteria.

caspase-3 = test: Induction of caspase 3 in T-lymphoma cell lines; type: cell-based; conditions: 48 h incubation, fluorimetric; FIG. 3
Protocol: Cells (Jurkat, MOLT-4, CCRF-CEM, HuT-78 and HuT-102) were incubated with desired concentrations of Compound (A) for 48 h. An equal number of cells per well (0.3×10^6 cells) were used. Increase in apoptosis manifested by an elevation in caspase-3 levels was determined using a Caspase-3 kit from Millipore. Induction of Caspase 3 by Compound A was measured fluorimetrically.

[4] = test system: MOLT-4 (human T lymphoblast cell line) xenograft; test: MOLT-4 subcutaneous mouse xenograft model; type: in vivo
Protocol: The anti-tumor effect of Compound (A) was determined in a MOLT-4 (representing human T lymphoblast cell line) subcutaneous mouse xenograft model. Briefly, 10^6 cells were injected into the flank region. Mice were randomized according to body weight into […] groups of five. A week after tumor cell injection, mice either received the vehicle, oral administration of Compound (A) at 50 mg/kg/BID Compound (A), or administration of cytarabine (Ara-C), over an 18-day study period. At the end of the study period, animals were sacrificed and the tumors harvested.

pAKT = pAKT in patient-derived primary malignant T cells (Phosphoflow); type: cell-based, human; conditions: CTCL donors n=6, 1.5 h incubation then cytokine activation 30 min; FIG. 4
Protocol: as §1

## CC[C@H](Nc1ncnc2[nH]cnc12)c1oc2ccccc2c(=O)c1-c1cccc(F)c1 [Compound (A), (S)-2-(1-((9H-purin-6-yl)amino)propyl)-3-(3-fluorophenyl)-4H-chromen-4-one]
phospho-AKT (Ser473)
  endogenous pAKT expression: dose-dependent reduction
[1]
  proliferation / growth of T-lymphoma cell lines: dose-dependent reduction in proliferation
[2]
  apoptosis in purified malignant T-cells: dose-dependent increases in apoptosis
[3]; All, 58 treated/35 evaluable
  CR (complete response): (9) %
  CR (complete response), patients: 3 n
  DCR (CR + PR + SD): 74%
  DCR (CR + PR + SD), patients: 26 n
  PD (progressive disease): 23%
  PD (progressive disease), patients: 8 n
  PR (partial response): (37) %
  PR (partial response), patients: 13 n
  ORR (objective response rate): (46) %
  ORR (objective response rate), patients: 16 n
[3]; CTCL, 30 treated/20 evaluable
  DCR (CR + PR + SD): 80%
  DCR (CR + PR + SD), patients: 16 n
  PD (progressive disease): 20%
  PD (progressive disease), patients: 4 n
  PR (partial response): (45) %
  PR (partial response), patients: 9 n
  ORR (objective response rate): (45) %
  ORR (objective response rate), patients: 9 n
[3]; PTCL, 28 treated/15 evaluable
  CR (complete response): (20) %
  CR (complete response), patients: 3 n
  DCR (CR + PR + SD): 74%
  DCR (CR + PR + SD), patients: 10 n
  PD (progressive disease): 27%
  PD (progressive disease), patients: 4 n
  PR (partial response): (27) %
  PR (partial response), patients: 4 n
  ORR (objective response rate): (47) %
  ORR (objective response rate), patients: 7 n
caspase-3
  caspase-3 induction: dose-dependent increase in caspase-3
[4]; 50 mg/kg BID oral, 18-day study period, vs vehicle, FIG. 6
  tumor growth: significantly delayed tumor growth; also recorded: significant delay in tumor growth
[4]; mice, daily dose of 50 mg/kg
  tolerability (body weight, adverse effects): without body weight loss or noticeable adverse effects
pAKT
  inhibition of pAKT in purified malignant T-cells: dose-dependent inhibition of pAKT
